Experimental data as given in ChEMBL document CHEMBL1122215, “2-(Aminomethyl)phenols, a new class of saluretic agents. 5. Fused-ring analogues” (1983).

Tests used:
Canis familiaris [1] = experiment: Saluretic property in average of two anesthetized dogs after 5 mg/kg intravenous administration; type: functional, Canis lupus familiaris
Rattus norvegicus [2] = experiment: Saluretic property after 50 mg/kg oral administration in rats; type: functional
Canis familiaris [3] = experiment: Saluretic property in average of two anesthetized dogs after 5 mg/kg iv administration; type: functional, Canis lupus familiaris
Canis familiaris [4] = experiment: Saluretic property in average of two conscious dogs after 5 mg/kg intravenous administration; type: functional, Canis lupus familiaris
Canis familiaris [5] = experiment: Saluretic property in average of three anesthetized dogs after 5 mg/kg intravenous administration; type: functional, Canis lupus familiaris
Rattus norvegicus [6] = experiment: Saluretic property after 80 mg/kg oral administration in rats; type: functional
Canis familiaris [7] = experiment: Saluretic property in average of one used conscious dog after 5 mg/kg intravenous administration; type: functional, Canis lupus familiaris
Canis familiaris [8] = experiment: Saluretic property in average of two anesthetized dogs after 1 mg/kg intravenous administration; type: functional, Canis lupus familiaris
Canis familiaris [9] = experiment: Saluretic property in average of single anesthetized dogs after 5 mg/kg intravenous administration; type: functional, Canis lupus familiaris

Row | SMILES | Score (Canis familiaris [1]) | Score (Rattus norvegicus [2]) | other results
1 | Cc1cc(C)c2c(c1O)C(N)CC2.Cl (centres undefined) | 0 | 0 | 
2 | NCc1ccccc1O [2-(AMINOMETHYL)PHENOL] |  | 0 | Score (Canis familiaris [3]): 0
3 | Cc1c(O)c(CN)c(C)c2c1CCCC2.Cl |  | 5 | Score (Canis familiaris [4]): 4
4 | NS(=O)(=O)c1cc2c(cc1Cl)NCNS2(=O)=O [HYDROCHLOROTHIAZIDE] |  | 2 | Score (Canis familiaris [5]): 1
5 | Cl.Cl.NCc1c(O)ccc2cccnc12 | 0 |  | Score (Rattus norvegicus [6]): 0
6 | Cl.NC1CCc2c(Cl)ccc(O)c21 (centres undefined) | 1 |  | 
7 | Cl.Cl.NCc1c(O)ccc2ncccc12 |  | 0 | Score (Canis familiaris [7]): 1
8 | CC1Nc2ccc(O)c(CN)c2S1.Cl.Cl (centres undefined) | 0 | 0 | 
9 | NS(=O)(=O)c1cc(C(=O)O)c(NCc2ccco2)cc1Cl [FUROSEMIDE] |  | 3 | Score (Canis familiaris [8]): 6
10 | Cl.Cl.Cl.NCc1cc(Cl)c2cccnc2c1O |  |  | Score (Canis familiaris [4]): 1
11 | Cl.NCc1c(O)ccc2ccccc12 | 1 |  | 
12 | Cl.NCc1c(O)ccc2nccnc12 |  | 0 | Score (Canis familiaris [5]): 1
13 | Cl.NCc1cc(Cl)c2ccccc2c1O | 6 | 2 | 
14 | Cl.Cl.NCc1ccc2cnccc2c1O |  | 0 | Score (Canis familiaris [9]): 1
15 | CCC1Cc2c(Cl)c(Cl)c(O)c(CN)c2C1.Cl (centres undefined) | 0 | 0 | 
16 | Cc1cc(=O)oc2ccc(O)c(CN)c12.Cl |  | 0 | Score (Canis familiaris [3]): 0
